The test system of assay [1] is ferrets (right ventricular contractile force, blood pressure). Briefly: In vivo inotropic activity in ferrets. The arrangement: species or system ferret. As to conditions: Mustela putorius, 1 h, intraduodenal. As to the method: This test is carried out in ferrets as follows. Fasted anesthetized ferrets are instrumented to study hemodynamic parameters as well as right ventricular contractile force (RVCF) using a Walton-Brodie open strain guage arch. Drugs are administered intraduodenally as solutions in DMSO (1 mL or less) and effects on myocardial contractile force and other parameters are monitored for 60 minutes after dosing. Changes in contractile force in response to drug treatment are expressed in terms of percent change from predose control.

Assay [2] relates to platelet aggregation (Ex Vivo vs. ADP). Briefly: Inhibition of platelet aggregation following oral administration (Ex vivo). The class given is in vivo. The note with it: Rattus norvegicus, rats, oral by gavage, 2 hours after dosing. How it is done:
This test is sometimes referred to in the art as an Ex vivo method and was initially described by Fleming, et al., Arch. Int. Pharmacodyn. Ther., 199, 164 (1972). Briefly, the assay is essentially carried out as follows.
Aggregometry is performed in vitro as previously described on platelet rich plasma samples obtained from rats dosed with either test compounds or the vehicle. In all cases, activity is determined 2 hours after the drug is administered orally at various doses by gavage as a suspension in […] plus a few drops of Tween 20.

Assay [3] addresses T1, cAMP phosphodiesterase (human platelets) (Homo sapiens, UniProt Q14432).
T1 construct: enzynme obtained from human platelets; from tissue; host or cells: human platelets
Nature of the assay: Inhibition of cyclic AMP phosphodiesterase. The assay is classed as biochemical. As to conditions: PDE from human platelets. How it is done:
This assay is carried out essentially as described by Thompson, et al., Methods in Enzymology, 38, 205-212 (1974). Briefly, tritium labeled cyclic adenosine monophosphate (cAMP) is incubated with a phosphodiesterase (PDE) enzynme obtained from human platelets which converts a portion of the cAMP to 5'AMP in culture tubes. This reaction is terminated by submerging the tubes in a boiling water bath after which they are placed on ice and an aliquot of snake venom is added to each tube. This, during a second incubation, converts the 5'AMP to adenosine. Ion exchange resin is added to bind the remaining cyclic AMP. The tubes are centrifuged to sediment the resin and a portion of the clear supernatent (which contains radioactive adenosine) is counted in a liquid scintillation counter. The cAMP phosphodiesterase inhibition activity of a test agent is determined by pre-incubating the PDE enzyme preparation with the test agent.

Assay [4] concerns collagen-induced platelet aggregation. Nature of the assay: In vitro inhibition of platelet aggregation, collagen-induced (rabbit platelet rich plasma). The assay is classed as cell-based. As to conditions: Oryctolagus cuniculus, collagen suspension 0.05 ml, read-out: Platelet Inhibition In Vitro - Rabbit PRP EC50 vs. collagen. How it is done:
(§1) The aggregometer method of Born (1), as modified by Mustard, et al. (2) was used to assess the in vitro activity of the various compounds as to inhibition of adenosine diphosphate (ADP) and collagen-induced platelet aggregation. Platelet rich plasma (PRP) was separated by centrifugation from citrated (3.8 percent) rabbit blood. […] The various compounds tested were dissolved in dimethylsulfoxide (DMSO) so that 5 mcl added to the platelet rich plasma would yield the desired test concentration. Vehicle control trials were done and compared with aggregation induced in platelet rich plasma containing various concentrations of the test compounds. Dose response curves were obtained and Effective Concentration (EC50) values calculated.

Assay [5] concerns adenosine diphosphate (ADP)-induced platelet aggregation. Briefly: In vitro inhibition of platelet aggregation, ADP-induced (rabbit platelet rich plasma). The assay is classed as cell-based. As to conditions: Oryctolagus cuniculus, ADP 0.5 mcg/ml, read-out: Platelet Inhibition In Vitro - Rabbit PRP EC50 vs. ADP. As to the method:
as §1

Setting [6] is: anesthetized ferret, 3 mg/kg, 60 minutes, vs predose control, read-out: Maximum Percentage Change Right Ventricular Contractile Force (RVCF).
The mark [7] stands for this setting: anesthetized ferret, 3 mg/kg, 60 minutes, read-out: Maximum Percentage Change Blood Pressure.

Molecules are shown by their SMILES. Values after ≈ are worked out from the molar mass of the structure shown. Like-named read-outs stand apart in the source and are kept apart here. Bounds are passed on as bounds.

T1 sequence (Q14432 whole entry): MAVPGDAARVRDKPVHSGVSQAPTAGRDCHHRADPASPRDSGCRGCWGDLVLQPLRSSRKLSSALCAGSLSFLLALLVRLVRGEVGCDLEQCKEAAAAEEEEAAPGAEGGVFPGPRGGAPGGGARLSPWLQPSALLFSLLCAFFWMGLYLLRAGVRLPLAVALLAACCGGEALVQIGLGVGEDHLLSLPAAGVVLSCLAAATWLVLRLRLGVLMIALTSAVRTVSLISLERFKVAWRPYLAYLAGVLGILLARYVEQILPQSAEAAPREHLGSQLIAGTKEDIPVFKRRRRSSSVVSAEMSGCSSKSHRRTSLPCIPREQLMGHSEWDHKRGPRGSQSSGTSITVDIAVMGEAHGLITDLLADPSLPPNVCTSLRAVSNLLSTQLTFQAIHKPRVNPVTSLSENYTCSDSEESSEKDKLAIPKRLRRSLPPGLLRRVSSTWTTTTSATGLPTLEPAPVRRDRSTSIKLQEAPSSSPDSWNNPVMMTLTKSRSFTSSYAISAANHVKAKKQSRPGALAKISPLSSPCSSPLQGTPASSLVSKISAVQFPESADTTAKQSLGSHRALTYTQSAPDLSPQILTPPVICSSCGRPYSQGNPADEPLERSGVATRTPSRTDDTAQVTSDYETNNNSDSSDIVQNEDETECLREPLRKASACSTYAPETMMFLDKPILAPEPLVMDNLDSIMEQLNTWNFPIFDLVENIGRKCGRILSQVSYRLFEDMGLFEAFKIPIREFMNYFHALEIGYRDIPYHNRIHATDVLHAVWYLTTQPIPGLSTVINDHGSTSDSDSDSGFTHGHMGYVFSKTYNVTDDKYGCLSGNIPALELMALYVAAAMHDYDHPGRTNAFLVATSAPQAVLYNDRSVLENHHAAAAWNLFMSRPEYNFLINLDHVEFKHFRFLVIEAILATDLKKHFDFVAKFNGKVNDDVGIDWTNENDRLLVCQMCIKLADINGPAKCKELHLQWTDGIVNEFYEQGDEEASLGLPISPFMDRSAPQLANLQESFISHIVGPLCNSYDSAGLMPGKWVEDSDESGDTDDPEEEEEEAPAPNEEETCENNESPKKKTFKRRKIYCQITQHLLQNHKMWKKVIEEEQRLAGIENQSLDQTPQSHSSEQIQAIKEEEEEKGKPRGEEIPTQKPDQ

As to `O=C(O)CCCOc1ccc2nc3[nH]c(=O)[nH]c3cc2c1` [Example 4, 4-[(2,3-Dihydro-2-oxo-1H-imidazo[4,5-b]quinolin-7-yl)oxy]butanoic Acid], the change in vivo at 3 mg/kg in assay [1] (setting [6]) was 3 ± 5%; in assay [1] (setting [7]), -3 ± 2%. The molecule further came in with an ED50 in assay [2] of 3.4 mg/kg.
Consider `Cn1c(=O)[nH]c2nc3ccc(OCCCC(=O)O)cc3cc21` [Example 6, 4-[(2,3-Dihydro-1-methyl-2-oxo-1H-imidazo[4,5-b]quinolin-7-yl)oxy]butanoic Acid], for which the IC50 in assay [3] worked out at 600 nM. In addition, the EC50 in assay [4] and in assay [5] was over 32 µg/mL in each case.
`O=C(O)COc1ccc2[nH]c3nc(O)nc-3cc2c1` [Example 7, 2-[(1,3-Dihydro-2-oxo-2H-imidazo[4,5-b]quinolin-7-yl)oxy]acetic Acid] gave an IC50 in assay [3] of 70 nM.
As to `O=C(O)CCCCOc1ccc2nc3[nH]c(=O)[nH]c3cc2c1` [Example 8, 5-[(2,3-Dihydro-2-oxo-1H-imidazo[4,5-b]quinolin-7-yl)oxy]pentanoic Acid], the half-maximal effective concentration (EC50) in assay [4] and in assay [5] was over 32 µg/mL throughout.
In assay [3], `Cn1c(O)nc2nc3ccc(OCCCCC(=O)O)cc3cc21` [Example 9, 5-[(2,3-Dihydro-1-methyl-2-oxo-1H-imidazo[4,5-b]quinolin-7-yl)oxy]pentanoicAcid] showed an IC50 of 800 nM. Further, the EC50 in assay [4] and in assay [5] was over 32 µg/mL throughout.
In the case of `COC(=O)CCCOc1ccc2nc3[nH]c(=O)n(C)c3cc2c1` [Example 11, Methyl 4-[(2,3-Dihydro-1-methyl-2-oxo-1H-imidazo[4,5-b]quinolin-7-yl)oxy]butanoat], the change in vivo at 3 mg/kg in assay [1] (setting [6]) is -10%; in assay [1] (setting [7]) it was -4%. The ED50 in assay [2] was determined as 15.7 mg/kg.
Consider `CCOC(=O)COc1ccc2nc3[nH]c(=O)[nH]c3cc2c1` [Example 12, Ethyl [(2,3-Dihydro-2-oxo-1H-imidazo[4,5-b]quinolin-7-yl)oxy]acetate], for which the EC50 was 2.5 µg/mL (≈ 8.7 µM) in assay [4] and 8 µg/mL (≈ 27.8 µM) in assay [5].
Regarding `COC(=O)CCCCOc1ccc2nc3[nH]c(=O)[nH]c3cc2c1` [Example 13, Methyl 5-[(2,3-Dihydro-2-oxo-1H-imidazo[4,5-b]quinolin-7-yl)oxy]pentanoate], the EC50 in assay [5] was 0.3 µg/mL (≈ 0.951 µM).
As to `COC(=O)CCCCOc1ccc2nc3nc(O)n(C)c3cc2c1` [Example 14, Methyl 5-[(2,3-Dihydro-1-methyl-2-oxo 1H-imidazo[4,5-b]quinolin-7-yl)oxy]pentanoate], in assay [3], the IC50 was 5000 nM. Moreover, in assay [5], the EC50 came to 3 µg/mL (≈ 9.11 µM).
Take `O=C(CCCOc1ccc2nc3[nH]c(=O)[nH]c3cc2c1)N1CCOCC1` [Example 15]: in assay [4], the EC50 came to 0.007 µg/mL (≈ 0.0196 µM). Moreover, the results for the change in vivo at 3 mg/kg in assay [1] (setting [6]) and in assay [1] (setting [7]) were 2% and -5%, respectively.
Regarding `O=C(CCCOc1ccc2nc3[nH]c(=O)[nH]c3cc2c1)NC1CCCCC1` [Example 18, N-Cyclohexyl-4-[(2,3-dihydro-2-oxo-1H-imidazo[4,5-b]quinolin-7-yl)oxy]butanamide], the EC50 is 0.0025 µg/mL (≈ 0.00679 µM) in assay [4] and 0.015 µg/mL (≈ 0.0407 µM) in assay [5]. In addition, the change in vivo at 3 mg/kg was 5% in assay [1] (setting [6]) and -8% in assay [1] (setting [7]).
As to `CN(C(=O)CCCOc1ccc2nc3nc(O)n(C)c3cc2c1)C1CCCCCC1` [Example 23, N-Cycloheptyl-4-[(2,3-dihydro-1-methyl-2-oxo-1H-imidazo[4,5-b]quinolin-7-yl)oxy]-N-methylbutanamide], in assay [3], 30000 nM corresponded to half-maximal inhibition (IC50). The EC50 in assay [4] was determined as 0.005 µg/mL (≈ 0.0122 µM); in assay [5], 0.03 µg/mL (≈ 0.0731 µM). The change in vivo at 3 mg/kg was 24% in assay [1] (setting [6]) and -16% in assay [1] (setting [7]).
As to `O=C(CCCOc1ccc2nc3[nH]c(=O)[nH]c3cc2c1)N1CCCCC1` [Example 24, 1-[4-[(2,3-Dihydro-2-oxo-1H-imidazo[4,5-b]quinolin-7-yl)oxy]-1-oxobutyl]piperidine], inhibition in assay [3] was half-maximal at 20 nM (IC50). The change in vivo at 3 mg/kg in assay [1] (setting [6]) was 32%; in assay [1] (setting [7]), -19%. In assay [5], the EC50 was 0.04 µg/mL (≈ 0.113 µM).
`Cn1c(=O)[nH]c2nc3ccc(OCCCC(=O)N4CCCCC4)cc3cc21` [Example 25, 1-[4-[(2,3-Dihydro-1-methyl-2-oxo-1H-imidazo[4,5-b]quinolin-7-yl)oxy]-1-oxobutyl]piperidine]: the EC50 in assay [4] turned out to be 0.8 µg/mL (≈ 2.17 µM); in assay [5], 4 µg/mL (≈ 10.9 µM).
As to `O=C(CCCOc1ccc2nc3[nH]c(=O)[nH]c3cc2c1)N1CCN(c2ccccc2)CC1` [Example 26, 1-[4-[(2,3-Dihydro-2-oxo-1H-imidazo[4,5-b]quinolin-7-yl)oxy]-1-oxobutyl]-4-phenylpiperazine], the IC50 in assay [3] was 2 nM. The EC50 in assay [4] stood at 0.009 µg/mL (≈ 0.0209 µM); in assay [5], 0.125 µg/mL (≈ 0.29 µM).
`CN(C(=O)CCCCOc1ccc2nc3nc(O)n(C)c3cc2c1)C1CCCCC1` [Example 27, N-Cyclohexyl-5-[(2,3-dihydro-1-methyl-2-oxo-1H-imidazo[4,5-b]quinolin-7-yl)oxy]N-methylpentanamide] yielded an IC50 in assay [3] of 500 nM. For the same molecule, the change in vivo at 3 mg/kg in assay [1] (setting [6]) was 35%; in assay [1] (setting [7]), -24%. For the same molecule, the EC50 in assay [5] stood at 0.06 µg/mL (≈ 0.146 µM).
On the same counts, the results for `CN(C(=O)CCCCOc1ccc2nc3[nH]c(=O)n(C)c3cc2c1)C1CCCCCC1` [Example 28, N-Cycloheptyl-5-[(2,3-dihydro-1-methyl-2-oxo-1H-imidazo[4,5-b]quinolin-7-yl)oxy]-N-methylpentanamide] are 600 nM, 27%, -12% and 0.06 µg/mL (≈ 0.141 µM).
As for `CCN(CC)CCOc1ccc2nc3[nH]c(=O)[nH]c3cc2c1` [Example 34, 7-[(2-Diethylamino)ethoxy]-1,3-dihydro-2H-imidazo[4,5-b]quinolin-2-one], the EC50 in assay [4] came out at 0.4 µg/mL (≈ 1.33 µM); in assay [5] it was 1.5 µg/mL (≈ 4.99 µM).
In turn, `Oc1nc2cc3cc(OCCCCc4nnnn4C4CCCCC4)ccc3[nH]c-2n1` [Example 36, 7-[4-(1-Cyclohexyl-1H-tetrazol-5-yl)butoxy]-1,3-dihydro-2H-imidazo[4,5-b]quinolin-2-one] registered an IC50 in assay [3] of 4 nM. Also, the EC50 in assay [4] stood at 0.02 µg/mL (≈ 0.0491 µM).
In assay [3], `CC(C)N1CC(COc2ccc3nc4[nH]c(=O)[nH]c4cc3c2)OC1=O` (centres unmarked) [Example 41, 1,3-Dihydro-7-[[3-(1-methylethyl)-2-oxo-5-oxazolidinyl]methoxy]-2H-imidazo[4,5-b]quinolin-2-one] came in with an IC50 of 60 nM. The EC50 came to 7 µg/mL (≈ 20.4 µM) in assay [4] and 3 µg/mL (≈ 8.76 µM) in assay [5].
Consider `CC(C)(C)N1CC(COc2ccc3nc4[nH]c(=O)[nH]c4cc3c2)OC1=O` (centres unmarked) [Example 42, 7-[[3-(1,1-Dimethylethyl)-2-oxooxazolidin-5-yl]methoxy]-1H-imidazo[4,5-b]quinolin-2(3H)-one], for which half-maximal inhibition in assay [3] (IC50) was put at 70 nM. For the same molecule, the figures for the EC50 in assay [4] and in assay [5] were 0.4 µg/mL (≈ 1.12 µM) and 6 µg/mL (≈ 16.8 µM), respectively.
In the case of `CC(C)NCC(O)COc1ccc2nc3[nH]c(=O)[nH]c3cc2c1` (centres unmarked) [Example 43, 1,3-Dihydro-7-[2-hydroxy-3-[(1-methylethyl)amino]propoxy]-2H-imidazo[4,5-b]quinolin-2-one], it took 300 nM to reach half-maximal inhibition in assay [3] (IC50). The 50% effective concentration (EC50) in assay [4] and in assay [5] was over 32 µg/mL in each case.
Molecule `OCCN(CCO)c1nc(N2CCCCC2)c2nc(N(CCO)CCO)nc(N3CCCCC3)c2n1` [dipyridamole, reference compound] gave an ED50 in assay [2] of over 100 mg/kg. For the same molecule, the EC50 in assay [5] was over 512 µg/mL.
Turning to `Cc1[nH]c(=O)c(C#N)cc1-c1ccncc1` [milrinone, reference compound], in assay [1] (read-out: Maximum Percentage Change Right Ventricular Contractile Force (RVCF)), the change in vivo at 3 mg/kg worked out at 52%.

As a reminder, the ED50 is the dose at which the effect has come halfway, by size or by number of responders. Higher therefore signals a need for a large dose. One may read the IC50 as the concentration that inhibits the measured activity by half. A lower IC50 goes with higher potency. One may read the EC50 as the concentration needed to bring the measured effect to its halfway point.

The values are drawn from US4775674A, “Imidazoquinolinylether derivatives useful as phosphodiesterase and blood aggregation inhibitors” (Bristol-Myers Company, priority 1986, dated 1988).
